This passage reports Activity results from ChEMBL document CHEMBL1770059, “Identification of chemicals to inhibit the kinase activity of leucine-rich repeat kinase 2 (LRRK2), a Parkinson's disease-associated protein” (Bioorg Med Chem Lett, 2011).

The target of test [1] is Ribosomal protein S6 kinase beta-1 (Homo sapiens) (UniProt P23443). In words: Inhibition of p70S6K assessed as residual activity of enzyme at 25 uM.
In test [2] the target is T1, Serine/threonine-protein kinase TAO2 (Homo sapiens) (UniProt Q9UL54).
T1 sequence (whole entry): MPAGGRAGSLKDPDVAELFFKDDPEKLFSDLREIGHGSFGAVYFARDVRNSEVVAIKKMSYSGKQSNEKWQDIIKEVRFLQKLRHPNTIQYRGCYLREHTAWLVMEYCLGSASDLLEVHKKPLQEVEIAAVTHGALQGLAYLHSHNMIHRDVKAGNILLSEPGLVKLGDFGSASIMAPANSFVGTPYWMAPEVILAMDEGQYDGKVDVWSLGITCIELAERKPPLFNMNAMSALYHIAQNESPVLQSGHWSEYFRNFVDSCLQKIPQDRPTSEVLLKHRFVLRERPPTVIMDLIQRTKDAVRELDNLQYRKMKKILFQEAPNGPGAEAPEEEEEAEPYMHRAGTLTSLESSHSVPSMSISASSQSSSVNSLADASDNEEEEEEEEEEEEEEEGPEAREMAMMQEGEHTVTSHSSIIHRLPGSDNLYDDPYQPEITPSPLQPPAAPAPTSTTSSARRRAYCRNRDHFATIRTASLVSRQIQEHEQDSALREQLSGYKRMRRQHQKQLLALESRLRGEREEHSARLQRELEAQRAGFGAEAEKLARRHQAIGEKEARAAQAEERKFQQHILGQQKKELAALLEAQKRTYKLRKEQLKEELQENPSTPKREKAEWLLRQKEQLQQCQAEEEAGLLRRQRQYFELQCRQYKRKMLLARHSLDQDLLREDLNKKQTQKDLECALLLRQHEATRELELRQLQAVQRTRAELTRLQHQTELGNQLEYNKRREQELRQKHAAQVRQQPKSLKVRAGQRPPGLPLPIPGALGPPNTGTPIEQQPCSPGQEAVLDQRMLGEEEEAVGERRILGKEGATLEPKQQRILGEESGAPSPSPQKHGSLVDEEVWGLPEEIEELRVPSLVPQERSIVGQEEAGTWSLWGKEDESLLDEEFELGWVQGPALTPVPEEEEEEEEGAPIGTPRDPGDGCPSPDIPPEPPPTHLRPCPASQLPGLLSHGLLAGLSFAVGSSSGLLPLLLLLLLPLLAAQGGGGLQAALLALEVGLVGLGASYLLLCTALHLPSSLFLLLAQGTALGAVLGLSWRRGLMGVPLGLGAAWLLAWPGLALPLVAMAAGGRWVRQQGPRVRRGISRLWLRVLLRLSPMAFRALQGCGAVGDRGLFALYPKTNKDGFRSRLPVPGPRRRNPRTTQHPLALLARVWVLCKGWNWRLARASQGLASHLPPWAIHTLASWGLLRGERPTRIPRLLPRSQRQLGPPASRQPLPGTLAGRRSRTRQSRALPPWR
In words: Inhibition of TAO2 assessed as residual activity of enzyme at 10 uM.

The target of test [3] is Glycogen synthase kinase-3 beta (Homo sapiens) (UniProt P49841). In words: Inhibition of GSK3-beta assessed as residual activity of enzyme at 25 uM.
Glycogen synthase kinase-3 beta (Homo sapiens), sequence (P49841 whole entry, looked up): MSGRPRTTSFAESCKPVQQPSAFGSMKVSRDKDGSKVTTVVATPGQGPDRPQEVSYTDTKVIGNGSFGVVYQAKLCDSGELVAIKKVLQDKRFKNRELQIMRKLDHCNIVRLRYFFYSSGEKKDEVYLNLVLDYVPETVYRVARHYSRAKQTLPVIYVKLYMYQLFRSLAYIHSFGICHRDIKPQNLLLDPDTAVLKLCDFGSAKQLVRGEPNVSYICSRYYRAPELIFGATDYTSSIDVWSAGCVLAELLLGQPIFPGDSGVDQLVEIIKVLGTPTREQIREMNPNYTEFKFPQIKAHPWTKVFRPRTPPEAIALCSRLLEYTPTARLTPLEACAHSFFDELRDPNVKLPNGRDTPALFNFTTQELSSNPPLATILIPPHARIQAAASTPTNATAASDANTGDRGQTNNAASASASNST
For test [4], the target named is T1, Serine/threonine-protein kinase TAO2 (Homo sapiens). In words: Inhibition of TAO2 assessed as residual activity of enzyme at 25 uM.
In test [5] the target is Leucine-rich repeat serine/threonine-protein kinase 2 (Homo sapiens) (UniProt Q5S007). Kind of test: Inhibition of wild type LRRK2 expressed in mouse SN4741 cells assessed as reduction in hydrogen peroxide-induced neurotoxicity at 10 uM by measuring cell survival after 48 hrs by crystal violet assay relative to control. The format is cell-based.
Leucine-rich repeat serine/threonine-protein kinase 2 (Homo sapiens), sequence (Q5S007 whole entry): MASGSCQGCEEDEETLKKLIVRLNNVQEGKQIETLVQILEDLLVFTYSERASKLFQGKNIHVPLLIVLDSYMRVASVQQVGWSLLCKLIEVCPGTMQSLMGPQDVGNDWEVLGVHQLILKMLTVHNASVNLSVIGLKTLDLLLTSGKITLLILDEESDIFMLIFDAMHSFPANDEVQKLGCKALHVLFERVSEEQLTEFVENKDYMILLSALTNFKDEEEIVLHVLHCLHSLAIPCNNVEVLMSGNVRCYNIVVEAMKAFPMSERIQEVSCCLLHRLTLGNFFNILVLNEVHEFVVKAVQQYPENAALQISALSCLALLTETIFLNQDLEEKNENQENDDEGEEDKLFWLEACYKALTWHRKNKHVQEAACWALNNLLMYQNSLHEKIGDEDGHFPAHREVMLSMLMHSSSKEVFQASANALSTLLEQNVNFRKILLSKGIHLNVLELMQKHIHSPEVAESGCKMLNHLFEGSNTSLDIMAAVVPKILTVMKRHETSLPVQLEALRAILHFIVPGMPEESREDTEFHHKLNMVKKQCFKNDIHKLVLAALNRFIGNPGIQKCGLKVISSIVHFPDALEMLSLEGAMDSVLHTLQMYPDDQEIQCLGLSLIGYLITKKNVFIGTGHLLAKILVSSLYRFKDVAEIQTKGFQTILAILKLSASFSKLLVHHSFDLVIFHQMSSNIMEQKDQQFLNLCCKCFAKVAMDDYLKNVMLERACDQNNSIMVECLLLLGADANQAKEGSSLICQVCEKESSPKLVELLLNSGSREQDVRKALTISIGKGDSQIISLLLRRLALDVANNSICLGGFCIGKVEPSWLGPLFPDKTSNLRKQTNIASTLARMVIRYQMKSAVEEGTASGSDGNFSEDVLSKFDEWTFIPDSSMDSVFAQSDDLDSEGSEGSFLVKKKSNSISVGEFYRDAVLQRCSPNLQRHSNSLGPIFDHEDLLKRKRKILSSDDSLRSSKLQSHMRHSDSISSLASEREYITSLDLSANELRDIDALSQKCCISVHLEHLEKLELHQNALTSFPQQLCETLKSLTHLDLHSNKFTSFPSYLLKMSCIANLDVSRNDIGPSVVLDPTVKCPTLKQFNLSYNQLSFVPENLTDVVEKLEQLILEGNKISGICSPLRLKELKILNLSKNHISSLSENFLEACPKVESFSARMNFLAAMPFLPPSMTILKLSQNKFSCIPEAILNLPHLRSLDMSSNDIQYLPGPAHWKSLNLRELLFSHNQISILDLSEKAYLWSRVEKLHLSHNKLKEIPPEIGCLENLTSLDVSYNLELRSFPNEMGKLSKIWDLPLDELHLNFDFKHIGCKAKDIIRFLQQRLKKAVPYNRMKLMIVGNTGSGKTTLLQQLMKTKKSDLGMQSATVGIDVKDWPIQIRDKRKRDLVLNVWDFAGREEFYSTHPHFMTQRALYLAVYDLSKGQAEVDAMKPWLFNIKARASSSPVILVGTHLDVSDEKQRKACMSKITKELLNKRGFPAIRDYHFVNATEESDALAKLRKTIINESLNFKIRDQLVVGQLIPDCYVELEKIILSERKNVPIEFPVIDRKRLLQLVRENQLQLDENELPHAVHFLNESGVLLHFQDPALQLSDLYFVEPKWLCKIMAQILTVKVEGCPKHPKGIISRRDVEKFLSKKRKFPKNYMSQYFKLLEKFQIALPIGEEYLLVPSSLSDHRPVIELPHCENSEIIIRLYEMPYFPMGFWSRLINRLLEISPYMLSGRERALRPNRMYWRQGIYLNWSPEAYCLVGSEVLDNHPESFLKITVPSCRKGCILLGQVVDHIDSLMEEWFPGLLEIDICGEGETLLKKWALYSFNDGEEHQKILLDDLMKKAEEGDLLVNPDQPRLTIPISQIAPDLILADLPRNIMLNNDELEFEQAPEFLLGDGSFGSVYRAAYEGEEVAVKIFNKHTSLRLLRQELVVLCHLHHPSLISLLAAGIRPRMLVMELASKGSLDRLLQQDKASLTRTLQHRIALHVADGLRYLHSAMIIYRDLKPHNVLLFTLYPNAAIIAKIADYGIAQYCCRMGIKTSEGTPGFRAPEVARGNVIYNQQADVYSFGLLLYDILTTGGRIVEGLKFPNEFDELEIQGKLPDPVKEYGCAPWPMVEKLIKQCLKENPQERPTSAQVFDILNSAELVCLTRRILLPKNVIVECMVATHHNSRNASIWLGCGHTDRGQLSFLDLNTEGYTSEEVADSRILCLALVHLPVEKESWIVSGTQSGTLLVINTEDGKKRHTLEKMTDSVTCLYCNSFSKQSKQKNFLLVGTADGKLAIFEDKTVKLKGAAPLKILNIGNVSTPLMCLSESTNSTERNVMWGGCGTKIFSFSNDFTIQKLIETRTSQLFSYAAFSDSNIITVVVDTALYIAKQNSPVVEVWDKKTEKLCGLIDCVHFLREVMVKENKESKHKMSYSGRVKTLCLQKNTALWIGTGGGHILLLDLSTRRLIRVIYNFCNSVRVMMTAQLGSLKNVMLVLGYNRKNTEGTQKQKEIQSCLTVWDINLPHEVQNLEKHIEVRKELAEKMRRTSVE
Test [6] has as its target T2, Serine/threonine-protein kinase TAO3 (Homo sapiens) (UniProt Q9H2K8).
T2 sequence (whole entry): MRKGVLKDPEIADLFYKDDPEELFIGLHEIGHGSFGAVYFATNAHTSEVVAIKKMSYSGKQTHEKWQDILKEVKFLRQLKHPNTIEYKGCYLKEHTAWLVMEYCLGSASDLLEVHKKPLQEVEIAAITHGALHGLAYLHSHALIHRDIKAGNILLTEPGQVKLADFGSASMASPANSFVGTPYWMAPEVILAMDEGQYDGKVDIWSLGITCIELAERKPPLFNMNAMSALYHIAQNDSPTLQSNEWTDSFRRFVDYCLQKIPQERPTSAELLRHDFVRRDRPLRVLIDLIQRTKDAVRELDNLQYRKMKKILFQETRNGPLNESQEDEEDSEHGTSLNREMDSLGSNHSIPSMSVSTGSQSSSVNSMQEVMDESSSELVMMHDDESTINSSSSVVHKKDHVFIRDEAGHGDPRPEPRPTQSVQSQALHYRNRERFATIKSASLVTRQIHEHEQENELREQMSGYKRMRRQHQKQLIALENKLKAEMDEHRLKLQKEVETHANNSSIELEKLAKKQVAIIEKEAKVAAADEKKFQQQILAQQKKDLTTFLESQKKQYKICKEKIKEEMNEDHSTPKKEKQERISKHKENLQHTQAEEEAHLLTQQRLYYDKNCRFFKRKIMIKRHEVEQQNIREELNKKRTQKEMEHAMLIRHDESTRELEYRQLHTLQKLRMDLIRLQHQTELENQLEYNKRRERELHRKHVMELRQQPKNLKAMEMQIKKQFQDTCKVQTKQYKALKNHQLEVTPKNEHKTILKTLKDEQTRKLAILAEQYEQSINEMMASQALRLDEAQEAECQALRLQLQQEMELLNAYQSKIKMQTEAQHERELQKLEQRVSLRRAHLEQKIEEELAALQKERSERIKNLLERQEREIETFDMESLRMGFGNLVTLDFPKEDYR
In words: Inhibition of TAO3 assessed as residual activity of enzyme at 25 uM.

Ribosomal protein S6 kinase beta-1 (Homo sapiens), sequence (P23443 whole entry, looked up): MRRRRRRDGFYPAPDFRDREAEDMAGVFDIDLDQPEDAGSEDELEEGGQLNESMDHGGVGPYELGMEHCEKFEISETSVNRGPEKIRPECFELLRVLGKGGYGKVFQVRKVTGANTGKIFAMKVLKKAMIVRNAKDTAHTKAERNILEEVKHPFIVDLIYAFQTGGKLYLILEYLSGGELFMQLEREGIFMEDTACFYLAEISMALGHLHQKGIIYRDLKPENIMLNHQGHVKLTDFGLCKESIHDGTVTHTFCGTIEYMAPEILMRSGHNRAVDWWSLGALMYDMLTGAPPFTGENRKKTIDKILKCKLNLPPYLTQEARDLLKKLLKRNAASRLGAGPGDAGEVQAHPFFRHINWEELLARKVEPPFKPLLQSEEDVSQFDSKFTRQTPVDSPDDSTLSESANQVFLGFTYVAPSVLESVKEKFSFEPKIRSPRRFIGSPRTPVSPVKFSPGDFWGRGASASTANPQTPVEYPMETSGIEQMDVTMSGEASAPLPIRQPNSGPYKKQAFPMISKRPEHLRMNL

Regarding `Cc1cc(N/N=C/c2ccncc2)nc2ccccc12`, the Activity in test [1] amounted to 50%; in test [2], 89%; in test [3] it was 94%; in test [4], 84%; in test [5], 50%; in test [6] it was 81%.
